Laboratory results: patent US5204241A, “Glutathione-S-transferase mu as a measure of drug resistance” (Oxi-Gene Inc., priority 1990, dated 1993)

Test system: glutathione transferase (GST-tSBO, identical to GST-mu)
Test: Glutathione transferase activity of human liver cytosols (105,000 g supernatants) toward tauromustine and trans-stilbene oxide as substrates
Type: in vitro ADME
Protocol: Human liver biopsies from ? 3 individuals were homogenized in 5 vol. of 0.25 M sucrose, centrifuged at 10,000 g for 15 minutes and then the resulting supernatant was re-centrifuged at 105,000 g for one hour. The 105,000 g supernatants were analyzed for glutathione transferase activity using trans-stilbene oxide (tSBO) and tauromustine as substrates. Metabolism of these substrates to glutathione conjugates was monitored by radiometric procedures involving differential organic solvent extraction, see Gill, S., Ota, J. and Hammock, B. D. Anal. Biochem. 131: 273-282 (1983), and high pressure liquid chromatography (HPLC).

## CN(C)S(=O)(=O)CCNC(=O)N(CCCl)N=O [tauromustine]
Human liver cytosols with GST-tSBO activity 0-10 nmo/min/mg protein (GST mu lacking)
  glutathione transferase activity toward tauromustine: 0-2 nmol/min/mg protein
Human liver cytosols with easily detectable GST-tSBO activity, 25-65 nmol/min/mg protein (GST mu present)
  glutathione transferase activity toward tauromustine (metabolism of tauromustine): 4-19 nmol/min/mg protein
Human liver cytosols, GST mu (+) vs (-)
  extent of metabolism by human liver cytosols having GST mu activity versus cytosols lacking GST mu activity: metabolized to a much greater extent
